According to US20230414839A1, “COATED MEDICAL PRODUCT” (HEMOTEQ AG, priority 2020, published 2023):

Key:
[1] = preparation and stability of crystal suspensions of microcrystalline rapamycin / everolimus in solutions of different tri-O-acylglycerols (Examples 2, 3); details: ethyl acetate/heptane solution; standing and temperature elevation
Source text: In the first step, solutions of tri-O-acylglycerols were first prepared in a solvent mixture. Subsequently, the solutions were combined with microcrystals of rapamycin and everolimus to investigate which tri-O-acylglycerols could be used to obtain stable crystal suspensions. The composition of the solvents and solvent mixture varied depending on the active agent used. The solutions and solvent mixtures prepared in the example apply to rapamycin (SIR) and everolimus (EVR). For the preparation of the solutions, an ethyl acetate/heptane solvent mixture was used here as an example.
To prepare the solutions, 770 mg of the respective tri-O-acylglycerol and optionally 150 mg BHT were dissolved in 14 g ethyl acetate (15.6 mL). Then, 57.4 g of n-heptane (84.4 mL) was added. Subsequently, homogenization and filtration were performed. The total volume of the solvent mixture is 100 mL.
To a precisely weighed amount of dry microcrystals of the previously prepared limus active agent, a defined amount of the solutions containing tri-O-acylglycerol and optionally antioxidant is carefully added. It was investigated whether the microcrystals of the limus active agent are not soluble in the solutions and whether suspensions are formed.
To check whether crystal suspension can be prepared, to each 200 mg of rapamycin in the form of microcrystals or 200 mg of everolimus in the form of microcrystals were carefully added 10 mL of one of the solutions 1a) to 1t) at room temperature. Three mixtures of 10 mL of solution for each solution were prepared. After combining, it was tested whether the microcrystals of limus active agents dissolved directly in the solutions. For solutions where there was no immediate dissolution of the microcrystals of the limus active agents, the suspensions of the solutions without antioxidant were allowed to stand for a period of 100 h and tested again to see if the microcrystals of the limus active agents dissolved.
Three mixtures of 10 mL of solution for each solution were prepared. After combining, it was tested whether the microcrystals of limus active agents dissolved directly in these solutions. For solutions where there was no immediate dissolution of the microcrystals of the limus active agents, the suspensions of the solutions without antioxidant were allowed to stand for a period of 100 hours and tested again to see if the microcrystals of the limus active agents dissolved.

[2] = cited from earlier work

SMILES: CCCCCCCCCCC(=O)OCC(COC(=O)CCCCCCCCCC)OC(=O)CCCCCCCCCC [Triundecanoylglycerol, 1,3-bis(undecanoyloxy)propan-2-yl-undecanoate]
- stability of the crystal suspension of microcrystalline everolimus and rapamycin with the tri-O-acylglycerol [1]: remained stable after 24-48 hours and under temperature elevation
- solubility in water [2]: practically insoluble in water
